According to patent publication US10189863B2, “5,6-dihydro-4H-benzo[b]thieno-[2,3-d]azepine derivatives” (PULMOCIDE LIMITED, priority 2014, dated 2019):

Experiments:
[1] = test system: RSV A2 strain; assay: Assessment of RSV induced CPE in HEp2 cells (RSV A2 strain); assay type: cell-based; conditions: human respiratory syncytial virus, HEp2 cells; for IC50: HEp-2, 120 h, 1 MOI, 5 days, read-out: RSV A2 CPE IC50; for inhibition at 0.1 µg/mL: Inhibition (%) at 0.1 μg/mL, read-out: RSV A2 CPE % Inhibition
Method: (§1) Assessment of RSV Induced CPE in HEp2 Cells
(§2) HEp2 cells were seeded (10^3/well/50 μL) in 384-well plates (Catalogue number 353962, BD Falcon, Oxford, UK) in […] containing 2 mM L-glutamine and 1 mM sodium pyruvate one day before infection. RSV A2 strain (#0709161v, NCPV, Public Health England, Wiltshire) or RSV B Washington strain (VR-1580, ATCC, Manassas, Va. 20108) virus solutions were prepared in serum free-DMEM with 2 mM L-glutamine and 1 mM sodium pyruvate, and then added (50 μL/well) to achieve a final virus concentration of 1 MOI. Simultaneously test compounds (0.5 μL DMSO solution) were added to 100 μL of HEp2 cell culture with virus solution to provide a final DMSO solution of 0.5%. Plates were incubated (37° C./5% CO2) for 5 days for studies using RSV A2 strain or 6 days for those using RSV B strain, and then resazurin sodium salt (5 μL of 0.03% solution; Sigma-Aldrich, Dorset, UK) was added to each well and the plate incubated for a further 6 hr (37° C./5% CO2). The fluorescence of each well [545 nm (excitation)/590 nm (emission)] was determined using a multi-scanner (Clariostar: BMG, Buckinghamshire, UK). The percentage inhibition for each well was calculated and the IC50, IC75 and IC90 values were calculated from the concentration-response curve generated for each test compound.

[2] = test system: RSV B Washington strain; assay: Assessment of RSV induced CPE in HEp2 cells (RSV B Washington strain); assay type: cell-based; conditions: human respiratory syncytial virus, HEp2 cells; for IC50: HEp-2, 144 h, 1 MOI, 6 days, read-out: RSV B CPE IC50; for inhibition at 1 µg/mL: Inhibition (%) at 1 μg/mL, read-out: RSV B CPE % Inhibition
Method: as §1, §2

[3] = Cell viability: resazurin assay; assay type: cell-based, human; conditions: human, HEp2 cells
Method: Cell Viability: Resazurin Assay
HEp2 cells were seeded in 384-well plates (10^3/well/50 μL; BD Falcon Ref 353962) in FBS DMEM (5%, containing 2 mM L-glutamine and 1 mM sodium pyruvate) one day before experimentation. Serum-free DMEM (50 μL) was added to test wells while for control wells the media was removed and sterile water (100 μL) was added. Test compounds (0.5 μL DMSO solution) were added to give a final DMSO concentration of 0.5%. Hep2 cells were incubated with each test compound for 5 days (37° C./5% CO2 in 5% FBS) and then resazurin stock solution (5 μL; 0.03%) was added to each well and the plate incubated for a further 6 hr (37° C./5% CO2). The fluorescence of each well at 545 nm (excitation) and 590 nm (emission) was determined using a multi-scanner (Clariostar: BMG Labtech). The percentage loss of cell viability was calculated for each well relative to vehicle (0.5% DMSO) treatment.
Any apparent increase in cell viability associated with test compound treatment relative to vehicle is consequently tabulated as a negative percentage. Where appropriate, a CC50 value was calculated from the concentration-response curve generated from the concentration-response curve for each test compound.

Compound | IC50 [1] | IC50 [2] | inhibition at 0.1 µg/mL ([1]; HEp-2) | inhibition at 1 µg/mL ([2]; HEp-2) | CC50 at 5 days [3] | inhibition at 0.01 µg/mL ([1]; HEp-2, Inhibition (%) at 0.01 μg/mL) | inhibition at 0.1 µg/mL ([2]; HEp-2, Inhibition (%) at 0.1 μg/mL)
Cc1ccccc1NC(=O)c1cc2c(s1)-c1ccccc1N(C(=O)c1ccc(NC(=O)c3cc(C)c(C)nc3N3CC4(CCOCC4)C3)cc1)CC2 [Example 42, 6-(4-(5,6-dimethyl-2-(7-oxa-2-azaspiro[3.5]nonan-2-yl)nicotinamido)benzoyl)-N-(o-tolyl)-5,6-dihydro-4H-benzo[b] thieno[2,3-d]azepine-2-carboxamide] | 0.14 nM | 60.5 nM | 97% | 80% | > 14 µM | – | –
Cc1cc(C(=O)Nc2ccc(C(=O)N3CCc4cc(C(=O)Nc5c(C)cccc5F)sc4-c4ccccc43)cc2)c(N2CC3(CCOCC3)C2)nc1C [Example 44, 6-(4-(5,6-dimethyl-2-(7-oxa-2-azaspiro[3.5]nonan-2-yl)nicotinamido)benzoyl)-N-(2-fluoro-6-methylphenyl)-5,6-dihydro-4H-benzo[b]thieno[2,3-d]azepine-2-carboxamide] | 0.13 nM | 16.2 nM | 100% | 76% | > 13.7 µM | – | –
Cc1cnc(N2CC3(CCOCC3)C2)c(C(=O)Nc2ccc(C(=O)N3CCc4cc(C(=O)Nc5c(F)cccc5F)sc4-c4ccccc43)cc2)c1 [Example 47, N-(2,6-difluorophenyl)-6-(4-(5-methyl-2-(7-oxa-2-aza-spiro[3.5]nonan-2-yl)nicotinamido)benzoyl)-5,6-dihydro-4H-benzo[b]thieno[2,3-d]azepine-2-carboxamide] | 0.13 nM | 5.7 nM | – | – | > 13.9 µM | 100% | 100%

Compounds with a lower IC50 [1], results first:

IC50 [1] | IC50 [2] | Compound | inhibition at 0.1 µg/mL ([1]; HEp-2) | inhibition at 1 µg/mL ([2]; HEp-2) | CC50 at 5 days [3] | inhibition at 0.01 µg/mL ([1]; HEp-2, Inhibition (%) at 0.01 μg/mL) | inhibition at 0.1 µg/mL ([2]; HEp-2, Inhibition (%) at 0.1 μg/mL)
0.11 nM | 15.4 nM | Cc1ccc(C(=O)Nc2ccc(C(=O)N3CCc4cc(C(=O)Nc5c(F)cccc5Cl)sc4-c4ccccc43)cc2)c(N2CC3(CCOCC3)C2)n1 [Example 41, N-(2-chloro-6-fluorophenyl)-6-(4-(6-methyl-2-(7-oxa-2-azaspiro[3.5]nonan-2-yl)nicotinamido)benzoyl)-5,6-dihydro-4H-benzo[b]thieno[2,3-d]azepine-2-carboxamide] | 100% | 79% | > 13.6 µM | – | –
0.12 nM | 59.4 nM | Cc1cc(C(=O)Nc2ccc(C(=O)N3CCc4cc(C(=O)Nc5ccccc5F)sc4-c4ccccc43)cc2)c(N2CC3(CCOCC3)C2)nc1C [Example 43, 6-(4-(5,6-dimethyl-2-(7-oxa-2-azaspiro[3.5]nonan-2-yl)nicotinamido)benzoyl)-N-(2-fluorophenyl)-5,6-dihydro-4H-benzo[b]thieno[2,3-d]azepine-2-carboxamide] | 100% | 72% | > 14 µM | – | –
0.11 nM | 84 nM | Cc1cc(C(=O)Nc2ccc(C(=O)N3CCc4cc(C(=O)Nc5ccc(F)cc5F)sc4-c4ccccc43)cc2)c(N2CC3(CCOCC3)C2)nc1C [Example 45, N-(2,4-difluorophenyl)-6-(4-(5,6-dimethyl-2-(7-oxa-2-azaspiro[3.5]nonan-2-yl)nicotinamido)benzoyl)-5,6-dihydro-4H-benzo[b]thieno[2,3-d]azepine-2-carboxamide] | 100% | 68% | > 13.6 µM | – | –
0.069 nM | 7 nM | Cc1cc(C(=O)Nc2ccc(C(=O)N3CCc4cc(C(=O)Nc5c(F)cccc5Cl)sc4-c4ccccc43)cc2)c(N2CC3(CCOCC3)C2)nc1C [Example 46, N-(2-chloro-6-fluorophenyl)-6-(4-(5,6-dimethyl-2-(7-oxa-2-azaspiro[3.5]nonan-2-yl)nicotinamido)benzoyl)-5,6-di-hydro-4H-benzo[b]thieno[2,3-d]azepine-2-carboxamide] | 100% | 86% | > 13.3 µM | – | –
